Data taken from paper PMC3491656 (Journal of medicinal chemistry, 2012).
Entries after “also recorded” stand apart in the source; their conditions may differ.

Legend:
[1] = Preliminary in vivo metabolism study; details: Supplemental Figure 2
male C57BL/6J mice [2] = experiment: Forced swim test; type: in vivo; details: for immobility in forced swim test: 5 mg/kg oral once a day for 21 days
TrkB [3] = target: T1, TrkB (Mus musculus, UniProt P15209); experiment: TrkB activation in mouse brain after single oral administration; type: in vivo, C57 BL/6J mice; details: 1 mg/kg oral; for TrkB activation in mouse brain: hippocampus
TrkA receptor = TrkA receptor (Mus musculus, UniProt Q3UFB7); experiment: TrkA activation in mouse brain after chronic oral treatment; type: in vivo, mice; details: 5 mg/kg oral, anti-p-TrkA 794
male C57BL/6J mice [4] = experiment: Locomotor activity assay; type: in vivo
HepG2 cells = experiment: Comet assay; type: cell-based, human; details: 100 μM, 24 h
p-Akt and p-MAPK = experiment: Downstream p-Akt and p-MAPK signaling in mouse brain; type: in vivo, C57 BL/6J mice; details: hippocampus; for downstream p-Akt and p-MAPK signalings: 1 mg/kg oral, 4 h; for downstream p-Akt activity: 2.5 mg/kg oral, 3 weeks
TrkB [5] = target: T1, TrkB; experiment: TrkB activation in mouse brain after chronic oral treatment; type: in vivo, C57 BL/6J mice; details: for TrkB phosphorylation in cortex and hippocampus: 5 mg/kg oral, vs vehicle; for TrkB phosphorylation in cortex and hippocampus / TrkB activation in brain tissues (anti-p-TrkB Y816 and Y706 immunoblotting): 3 weeks; for TrkB activation in brain tissues (anti-p-TrkB Y816 and Y706 immunoblotting) / TrkB phosphorylation in hippocampus (immunohistochemistry, anti-p-TrkB 816): 2.5 mg/kg oral; for TrkB activation in brain tissues (anti-p-TrkB Y816 and Y706 immunoblotting): after behavioral tests; for TrkB phosphorylation in hippocampus (immunohistochemistry, anti-p-TrkB 816): chronic, brain sections
TrkB [6] = target: TrkB (Rattus norvegicus, UniProt Q63604); experiment: TrkB activation in primary cortical cultures; type: cell-based; details: 500 nM, 15 min; for TrkB activation (agonistic activity): primary cortical cultures from E17 rat embryos, p-TrkB immunoblotting (Figure 2B); for TrkB and Akt activation in primary neurons: rat primary neurons, immunoblotting and p-Akt ELISA (Figure 4B)
[7] = In vivo pharmacokinetic studies in mice
[8] = Reactive metabolite screening; type: in vitro ADME; details: reactive metabolic screening
hERG = hERG (Homo sapiens, UniProt Q12809); experiment: hERG inhibition assay; type: in vitro ADME
[9] = Human plasma protein binding; type: in vitro ADME; details: 5 μM
male C57BL/6J mice [10] = experiment: Tail suspension test; type: in vivo; details: 2.5 mg/kg oral once a day for 3 weeks
P-Akt S473 = P-Akt S473 ELISA in drug-treated mouse brain; type: in vivo, C57 BL/6J mice; details: 1 mg/kg oral, time course
[11] = 5 mg/kg oral for 21 days, tested at day 22
[12] = 2.5 mg/kg oral once a day for 3 weeks

TrkB (Rattus norvegicus, UniProt Q63604), sequence (Q63604 32-821): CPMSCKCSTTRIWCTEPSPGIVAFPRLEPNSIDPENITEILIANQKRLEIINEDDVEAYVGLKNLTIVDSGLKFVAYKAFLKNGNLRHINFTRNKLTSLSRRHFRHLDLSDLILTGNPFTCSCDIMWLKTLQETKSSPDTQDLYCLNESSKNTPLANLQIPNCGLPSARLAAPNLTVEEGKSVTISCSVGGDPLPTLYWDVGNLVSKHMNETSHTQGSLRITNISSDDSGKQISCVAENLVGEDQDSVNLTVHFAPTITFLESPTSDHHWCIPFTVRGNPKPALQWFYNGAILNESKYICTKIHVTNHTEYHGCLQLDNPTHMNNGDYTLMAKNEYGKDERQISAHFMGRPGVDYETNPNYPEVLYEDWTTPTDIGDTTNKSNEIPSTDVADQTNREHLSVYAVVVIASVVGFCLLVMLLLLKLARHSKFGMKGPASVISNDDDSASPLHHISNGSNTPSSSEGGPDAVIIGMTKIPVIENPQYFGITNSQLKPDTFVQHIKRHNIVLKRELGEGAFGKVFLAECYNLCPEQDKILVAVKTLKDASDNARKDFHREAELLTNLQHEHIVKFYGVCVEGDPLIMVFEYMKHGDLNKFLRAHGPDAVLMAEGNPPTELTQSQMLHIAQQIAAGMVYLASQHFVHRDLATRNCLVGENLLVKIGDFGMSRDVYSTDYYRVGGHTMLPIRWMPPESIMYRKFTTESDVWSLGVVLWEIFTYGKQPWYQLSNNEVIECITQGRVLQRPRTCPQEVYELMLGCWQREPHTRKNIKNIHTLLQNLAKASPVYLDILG
T1 sequence (P15209 32-821): as the sequence (Q63604 32-821) above, with M3T, T9S, T10A, I32V, K63R, G84S, T153M, I185L, T394S, N770S counted along it
hERG, sequence (Q12809 whole entry): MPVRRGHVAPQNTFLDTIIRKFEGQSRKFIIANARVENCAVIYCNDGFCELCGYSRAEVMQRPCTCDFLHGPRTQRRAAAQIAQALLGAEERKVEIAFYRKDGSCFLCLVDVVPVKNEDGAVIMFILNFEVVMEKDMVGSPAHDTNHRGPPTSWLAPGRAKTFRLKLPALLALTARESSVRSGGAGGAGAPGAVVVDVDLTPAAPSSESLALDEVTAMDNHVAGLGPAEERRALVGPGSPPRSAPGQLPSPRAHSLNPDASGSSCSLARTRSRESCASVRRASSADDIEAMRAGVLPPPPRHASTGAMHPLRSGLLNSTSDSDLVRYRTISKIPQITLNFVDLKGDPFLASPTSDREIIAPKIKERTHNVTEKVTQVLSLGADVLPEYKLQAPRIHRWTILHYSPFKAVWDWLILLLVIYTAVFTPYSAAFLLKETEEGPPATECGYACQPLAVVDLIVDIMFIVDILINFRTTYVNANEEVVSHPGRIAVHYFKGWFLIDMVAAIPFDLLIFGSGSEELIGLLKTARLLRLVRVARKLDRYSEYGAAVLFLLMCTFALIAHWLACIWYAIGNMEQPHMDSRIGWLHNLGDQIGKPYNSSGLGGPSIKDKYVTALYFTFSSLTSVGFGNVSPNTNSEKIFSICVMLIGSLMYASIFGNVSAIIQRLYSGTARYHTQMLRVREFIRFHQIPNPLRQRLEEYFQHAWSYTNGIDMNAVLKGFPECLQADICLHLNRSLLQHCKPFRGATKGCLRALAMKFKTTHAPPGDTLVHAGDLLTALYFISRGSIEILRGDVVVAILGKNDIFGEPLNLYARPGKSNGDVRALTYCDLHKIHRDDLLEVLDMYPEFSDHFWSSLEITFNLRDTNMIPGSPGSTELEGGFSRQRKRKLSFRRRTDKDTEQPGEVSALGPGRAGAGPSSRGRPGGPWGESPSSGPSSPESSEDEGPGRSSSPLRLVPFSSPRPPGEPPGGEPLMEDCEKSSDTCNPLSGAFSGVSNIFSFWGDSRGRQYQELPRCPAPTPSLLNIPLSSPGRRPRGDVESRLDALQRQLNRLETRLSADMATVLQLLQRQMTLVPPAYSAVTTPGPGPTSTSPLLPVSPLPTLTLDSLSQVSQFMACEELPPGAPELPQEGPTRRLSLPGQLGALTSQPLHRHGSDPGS
TrkA receptor, sequence (Q3UFB7 34-799): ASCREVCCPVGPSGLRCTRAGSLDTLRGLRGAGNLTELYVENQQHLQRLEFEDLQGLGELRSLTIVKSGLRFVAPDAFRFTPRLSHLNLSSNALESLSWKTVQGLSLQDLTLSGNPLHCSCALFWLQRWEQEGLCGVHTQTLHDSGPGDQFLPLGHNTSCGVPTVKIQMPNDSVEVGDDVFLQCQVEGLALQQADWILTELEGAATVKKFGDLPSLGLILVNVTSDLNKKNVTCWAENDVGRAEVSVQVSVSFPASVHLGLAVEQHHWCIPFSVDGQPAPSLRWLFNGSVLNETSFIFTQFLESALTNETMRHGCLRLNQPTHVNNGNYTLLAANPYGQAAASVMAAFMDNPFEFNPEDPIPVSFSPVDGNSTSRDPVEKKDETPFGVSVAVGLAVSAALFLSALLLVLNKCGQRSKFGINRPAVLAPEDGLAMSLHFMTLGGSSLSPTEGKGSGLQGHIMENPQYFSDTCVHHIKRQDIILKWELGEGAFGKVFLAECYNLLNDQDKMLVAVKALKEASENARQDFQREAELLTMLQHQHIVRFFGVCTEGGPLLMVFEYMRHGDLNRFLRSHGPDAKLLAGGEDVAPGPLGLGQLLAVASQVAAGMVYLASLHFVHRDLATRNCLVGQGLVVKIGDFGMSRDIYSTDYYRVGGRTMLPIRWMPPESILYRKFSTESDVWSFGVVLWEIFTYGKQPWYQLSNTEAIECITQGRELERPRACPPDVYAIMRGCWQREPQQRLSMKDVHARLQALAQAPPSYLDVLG

Compound: O=c1cc(-c2ccccc2)oc2c(O)c(O)ccc12 [7,8-DHF, 7,8-dihydroxyflavone]
- in vivo metabolic pathways [1]: subjected to oxidation, glucuronidation, sulfation and methylation

Compound: CN(C)c1ccc(-c2cc(=O)c3ccc4nc[nH]c4c3o2)cc1 [compound 11, 8-(4′-(Dimethylamino)phenyl)chromeno[7,8-d]imidazol-6(1H)-one]
- immobility in forced swim test (male C57BL/6J mice [2]): significantly reduced the immobility
- TrkB activation in mouse brain (TrkB [3]; 4 h): robustly activated TrkB; also recorded: strongest TrkB stimulatory effect
- time at which TrkB activation faded away (TrkB [3]; time course): 16 h
- time of peak TrkB activation in mouse brain (TrkB [3]; time course): 4 h
- TrkA activation in mouse brain (TrkA receptor): TrkB but not TrkA is activated
- locomotor activity (male C57BL/6J mice [4]; [11]): substantially augmented locomoter activity; also recorded: significantly increased the locomotor activity
- DNA lesions (Comet assay) (HepG2 cells): induced DNA lesions
- downstream p-Akt and p-MAPK signalings (p-Akt and p-MAPK): activated
- TrkB phosphorylation in cortex and hippocampus (TrkB [5]): clearly escalated TrkB phosphorylation
- TrkB activation (agonistic activity) (TrkB [6]): stronger effect in triggering TrkB activation than the lead compound

Compound: Cc1nc2ccc3c(=O)cc(-c4ccc(N5CCCC5)cc4)oc3c2[nH]1 [compound 13, 2-methyl-8-(4-(pyrrolidin-1-yl)phenyl)chromeno[7,8-d]imidazol-6(1H)-one]
- ACINF ([7]; PO, 10 mg/kg): 1293 ng·min/mL
- adduct formation (Comment) [8]: quite stable in vitro; also recorded: No adduct detected
- TrkB activation in mouse brain (TrkB [3]; 2 h): triggers TrkB activation in mouse brain
- hERG inhibition (hERG): did not possess any concentration-dependent inhibition activity of hERG; also recorded: trifling
- Binding classification [9]: High Binding
- locomotor activity (male C57BL/6J mice [4]; [12]): neither compound 13 nor 23 altered the motion activity
- immobility in tail suspension test (male C57BL/6J mice [10]): significantly reducing the immobility
- downstream p-Akt activity (p-Akt and p-MAPK): upregulated
- TrkB activation in brain tissues (anti-p-TrkB Y816 and Y706 immunoblotting) (TrkB [5]): markedly activated TrkB
- TrkB phosphorylation in hippocampus (immunohistochemistry, anti-p-TrkB 816) (TrkB [5]): elevated TrkB phosphorylation in hippocampus
- TrkB and Akt activation in primary neurons (TrkB [6]): higher activity than compound 11 in triggering TrkB and Akt activation

Compound: O=c1cc(-c2ccc(N3CCCC3)cc2)oc2c1ccc1cc[nH]c12 [compound 23, 2-(4-(Pyrrolidin-1-yl)phenyl)pyrano[3,2-g]indol-4(9H)-one]
- reduction of immobility in FST compared to vehicle control (male C57BL/6J mice [2]; 2.5 mg/kg oral gavage once a day for 3 weeks): had no effect
- adduct formation (Comment) [8]: formed numerous adducts
- Binding classification [9]: High Binding
- locomotor activity (male C57BL/6J mice [4]; [12]): neither compound 13 nor 23 altered the motion activity
- immobility in tail suspension test (male C57BL/6J mice [10]): lacked efficacy
- downstream p-Akt activity (p-Akt and p-MAPK): upregulated
- TrkB activation in brain tissues (anti-p-TrkB Y816 and Y706 immunoblotting) (TrkB [5]): markedly activated TrkB
- TrkB phosphorylation in hippocampus (immunohistochemistry, anti-p-TrkB 816) (TrkB [5]): elevated TrkB phosphorylation in hippocampus
- TrkB and Akt activation in primary neurons (TrkB [6]): higher activity than compound 11 in triggering TrkB and Akt activation

Compound: CN(C)c1ccc(-c2cc(=O)c3ccc(O)c(O)c3o2)cc1 [compound 24, 4′-dimethylamino-7,8-dihydroxyflavone]
- Bioavailability ([7]; PO, 5 mg/kg): not measurable
- AUC(0-t) ([7]; mouse, plasma, iv, 1 mg/kg, AUClast): ~98.8 ng·h/mL
- half-life ([7]; mouse, plasma, iv, 1 mg/kg, T1/2, IV): ~9 min
- TrkB activation in mouse brain (TrkB [3]; 4 h): clearly activated the TrkB receptor; also recorded: strongest TrkB stimulatory effect
- downstream p-Akt and p-MAPK signalings (p-Akt and p-MAPK): activated

Compound: O=c1cc(-c2ccc(F)cc2)[nH]c2c(O)c(O)ccc12 [compound 25]
- TrkB activation (agonistic activity) (TrkB [6]): diminished agonistic activity

Compound: O=c1cc(-c2ccccc2)[nH]c2c(O)c(O)ccc12 [compound 26]
- TrkB activation (agonistic activity) (TrkB [6]): diminished agonistic activity

Compound: CN(C)c1cccc(-c2cc(=O)c3ccc(O)c(O)c3o2)c1 [compound 28, 3′-dimethylamino-7,8-DHF]
- TrkB activation (agonistic activity) (TrkB [6]): comparable activity as the lead compound 24

Compound: O=c1cc(-c2ccc(N3CCOCC3)cc2)oc2c(O)c(O)ccc12 [compound 29, 4′-morpholino-7,8-DHF]
- TrkB activation (agonistic activity) (TrkB [6]): comparable activity as the lead compound 24

Compound: O=c1cc(-c2ccc(F)cc2)oc2c(O)c(O)ccc12 [compound 30]
- TrkB activation (agonistic activity) (TrkB [6]): inhibited its activity

Compound: O=c1c(F)c(-c2cccc(O)c2)oc2c(O)c(O)ccc12 [compound 32]
- immobility in forced swim test (male C57BL/6J mice [2]): significantly reduced the immobility
- time of peak TrkB activation in mouse brain (TrkB [3]; time course): 1 to 2 h
- TrkB activation in mouse brain (time course comparison) (TrkB [3]; various time points): less effect on TrkB activation than compound 11
- TrkA activation in mouse brain (TrkA receptor): TrkB but not TrkA is activated
- locomotor activity (male C57BL/6J mice [4]; [11]): but not 32 significantly increased the locomotor activity
- time at which p-Akt returned to the baseline (P-Akt S473): 8 h
- time of peak p-Akt activation (ELISA) (P-Akt S473; 20 μg brain lysates): 1 h
- TrkB phosphorylation in cortex and hippocampus (TrkB [5]): clearly escalated TrkB phosphorylation
- TrkB activation (agonistic activity) (TrkB [6]): did not significantly affect 7,8-DHF’s TrkB agonistic activity; also recorded: barely affects TrkB stimulatory activity

Compound: O=c1cc(-c2ccccc2)oc2c(O)c(O)cc(F)c12 [compound 33]
- TrkB activation (agonistic activity) (TrkB [6]): did not significantly affect 7,8-DHF’s TrkB agonistic activity

Compound: O=c1c(F)c(-c2ccccc2)oc2c(O)c(O)ccc12 [compound 34]
- TrkB activation (agonistic activity) (TrkB [6]): did not significantly affect 7,8-DHF’s TrkB agonistic activity

Compound: CN(C)c1ccc(-c2cc(=O)c3c(F)cc(O)c(O)c3o2)cc1 [compound 35]
- TrkB activation (agonistic activity) (TrkB [6]): did not significantly affect 7,8-DHF’s TrkB agonistic activity
